# Measured values as given in paper PMC8804135 (Neurotherapeutics, 2021).
# Key:
# GAL2R = target: T1, GAL2R (Homo sapiens, UniProt O43603); parameters: expressed in transfected cells; host or cells: HEK293 Gqi cells, transient; plasmids from Young Seong (Korea University); details: cited from earlier work
# T1 sequence (O43603 1-387): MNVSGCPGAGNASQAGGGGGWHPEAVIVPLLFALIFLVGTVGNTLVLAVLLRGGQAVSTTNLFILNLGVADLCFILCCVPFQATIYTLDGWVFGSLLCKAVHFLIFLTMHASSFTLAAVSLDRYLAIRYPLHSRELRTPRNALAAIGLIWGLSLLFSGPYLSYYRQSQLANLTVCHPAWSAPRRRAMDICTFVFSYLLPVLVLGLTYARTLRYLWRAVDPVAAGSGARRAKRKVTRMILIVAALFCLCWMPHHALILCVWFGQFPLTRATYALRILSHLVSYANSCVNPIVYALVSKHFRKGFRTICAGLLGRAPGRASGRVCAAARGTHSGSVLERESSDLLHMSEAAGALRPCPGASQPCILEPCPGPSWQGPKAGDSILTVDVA
# Description: Since the discovery of the three GALRs, major effort has been directed at developing receptor-selective agonists and antagonists. These were based on substitution of certain amino acids in the galanin peptide sequence. While receptor selectivity was achieved to some degree, GAL(2–11) turned out to be a very selective non-GAL1R agonist.
# [1] = In vitro stability in cerebrospinal fluid; type: in vitro ADME; details: cerebrospinal or other body fluid; pooled male Wistar Hannover rat cerebrospinal fluid, 37 °C; 4 µl 0.50 mM peptide + 10 µl CSF; after 4 h; HPLC A280; n = 2–3; read-out: Peptide retrieved in CSF
# Method: Pooled male Wistar Hannover rat cerebrospinal fluid was purchased from BioIVT (West Sussex, UK). Stability of peptides was analyzed by incubation of 4 µl 0.50 mM GAL-(1–15) with 10 µl cerebrospinal fluid or 6 µl 0.33 mM M89b with 10 µl cerebrospinal fluid at 37 °C [43]. At various time points (0, 30, 60, 240, and 480 min), the reactions were quenched with 2 µl 50% TFA and 20 µl 100% ACN. Water was added to reach a final volume of 220 µl. Samples were centrifuged and kept on ice. Full-length peptides were quantified by using a C12 column (C12 RP 250 × 4.60 mm column, Phenomenex) on a JASCO HPLC system and applying a gradient of 20–90% ACN in 0.1% TFA for 30 min. Peptides were detected at 280 nm. A280 areas in chromatograms of the corresponding GAL-(1–15) and M89b full-length peptide peaks were used to determine the amount of peptide left after incubation with cerebrospinal fluid at the different time points. Peptide peaks were determined using JASCO-Borwin Chromatography software (v1.50).
# [2] = In vitro stability in rat serum; type: in vitro ADME; details: 5% rat serum, 20 mM phosphate pH 7.4, 37 °C, 10 µM, HPLC A280, n = 2–3
# Method: At various time points (0, 30, 90, 270, and 1410 min), 180 µl of samples were quenched with 10 µl 10% TFA and 20 µl 100% ACN. Samples were centrifuged and kept on ice. The amount of full-length peptides in the serum was analyzed using a C12 column (C12 RP 250 × 4.60 mm column, Phenomenex) on a JASCO HPLC system and applying a gradient of 10–90% ACN in 0.1% TFA for 45 min. Peptides were detected at 280 nm. A280 areas in chromatograms of the corresponding GAL-(1–15) and M89b full-length peptide peaks were used to determine the amount of peptide left after incubation with 5% rat serum at the different time points. Peptide peaks were determined using JASCO-Borwin Chromatography software (v1.50).
# [3] = In vitro stability in brain plasma; type: in vitro ADME, rat; details: 1% Sprague dawley rat brain plasma, 200 mM phosphate pH 7.4, 37 °C, 10 µM; after 1 h; HPLC A280; n=3
# Method: The method to study the stability of peptides in brain plasma is described in the Supplementary material. […]
# receptor-2-selective agonist reduces acute food intake
# Anneke Kuipers1, Márta Balasko2, Erika Pétervári2, Andreas Koller3,4, Susanne M.
# Brunner3,4, Gert N. Moll1,5, Barbara Kofler 3*
# In vitro stability in brain plasma
# Sprague dawley rat brain lyophilized powder was purchased from MyBioSource (San Diego, USA). One gram brain powder was reconstituted in 10 ml PBS, 0.5 ml 2 M Tris (pH=8), 100 µl Triton X -100 and 10 mg SDS. The solution was centrifuged and the supernatant was collected, aliquoted and stored at -20 °C until usage. To assess the stability, 10 µM GAL-(1-15) and 10 µM M89b were incubated in 1% brain plasma buffered with 200 mM phosphate buffer (pH 7.4) at 37°C for up to 6 hours. At various time points […]
# 20 µl 100% ACN. Samples were centrifuged and kept on ice. Full-length peptides were quantified by using a C12 column (C12 RP 250 x 4.60 mm column, Phenomenex) on a JASCO HPLC system and applying a gradient of 20 -90% ACN in 0.1% TFA for 30 minutes.
# Peptides were detected at 280 nm. A280 areas in chromatograms of the corresponding GAL-(1-15) and M89b full-length peptide peaks were used to determine the amount of peptide left after incubation with cerebrospinal fluid at the different time points. Peptide peaks were determined using JASCO-Borwin Chromatography software (v1.50).
# [4] = cited from earlier work
# Description: The use of natural galanin in clinical applications faces two serious limitations: lack of receptor specificity and in vivo susceptibility to rapid peptidase-mediated breakdown. […] Recently, a selective GAL2R agonist based on the sequence of spexin, a newly discovered natural peptide with affinity for GAL2R and ...
# [5] = intranasal administration with α-cyclodextrins; cited from earlier work
# Description: For delivery of therapeutic peptides and proteins to the brain, the blood–brain barrier (BBB) is a major impediment. Intranasal delivery might provide a non-invasive means to bypass the BBB. Advantages of applying peptides via the nasal route, provided they do indeed reach the brain, include minimizing exposure to peripheral organs and tissues, thus reducing systemic side effects. […] Intranasal delivery of peptides may provide the ability to target specific re ...
# [6] = tested on: non-fasted male Wistar rats; assay: Food intake and body weight after intranasal application of peptides; type: in vivo, rat
# Method: For intranasal delivery, 1 mg of M89b was first dissolved in 566 µl 2,2,2-trifluorethanol, 566 µl 10% (2-hydroxypropyl)-ß-cyclodextrin (HBC), and 1 µl acetic acid and incubated at 60 °C for 20 min. Another 566 µl of 10% HBC were added. The peptide was then dried in a speed-vac, and the dried pellet was dissolved in 1132 µl water by vortexing and incubation at 60 °C. M871 and GALP were purchased from GL Biochem. M871 was dissolved in saline containing 10% HBC. GALP was dissolved in saline containing 5% α-cyclodextrin.
# In vivo experiments involving intranasal treatment of rats and measurement of feeding behavior were performed at the Institute for Translational Medicine, University of Pécs, Pécs, Hungary. Experiments were approved by the National Ethical Council for Animal Research (permit number, BA 02/2000–11/2018). They were also in accord with the directives of the European Communities Council on the protection of animals used for scientific purposes (86/609/EEC, Directive 2010/63/EU of the European Parliament and of the Council).
# Spontaneous food intake was measured in non-fasted male Wistar rats (3 months old) for 24 h following intranasal application of peptide solutions by an automated FeedScale System (Columbus, OH). Each group of animals (6–9 rats/group) was habituated to the individual chambers of the FeedScale System until daily food intake and changes in the body weight of the animals had normalized. This habituation, which lasted for a minimum of 2 weeks, allowed adaptation to the environment, to the powdered chow and to the feeder. This powdered form of chow prevented food hoarding. A special digital scale under the cages provided precise automated measurement and continuous recording of the amount of consumed food. During the measurement of the cumulative 24 h food intake, data were collected every 30 min.
# Intranasal applications were performed at 06:00 PM at the onset of the active nighttime period of rats. First, the body weight of animals was recorded, and then they were intraperitoneally anesthetized with ketamine (52 mg/kg) and xylazine (9 mg/kg). For the intranasal application of peptides, rats were placed on their backs, and 25–30 µl of peptide solution was injected gently per nostril (total volume of 50–60 μl per rat depending on the administered peptides) using a 10-μl pipette. The following solutions were applied: M89b (25 nmol in 60 µl saline containing 10% HBC); GALP (17.5 nmol in 50 µl saline containing 5% α-cyclodextrin); M871 (219 nmol in 60 µl 10% HBC); and M89b + M871 (25 nmol M89b + 219 nmol M871 in 60 µl 10% HBC). […] At 24 h post-treatment, the body weight of the animals was measured.
# Statistical analysis was performed with SPSS 11.0. […] Body weight data were analyzed by applying a one-way ANOVA with Tukey’s post hoc test. […]
compound,measurement,setting,value
Ala5-galanin(2–11),Preference for GAL2R compared to both GAL1R and GAL3R,GAL2R,more than 375 fold
"CC(C)C[C@H](NC(=O)[C@H](CC(C)C)NC(=O)[C@H](Cc1ccc(O)cc1)NC(=O)CNC(=O)[C@H](C)NC(=O)[C@H](CO)NC(=O)[C@H](CC(N)=O)NC(=O)[C@H](CC(C)C)NC(=O)[C@@H](NC(=O)[C@H](Cc1c[nH]c2ccccc12)NC(=O)CN)[C@@H](C)O)C(=O)NCC(=O)N1CCC[C@H]1C(=O)N[C@@H](Cc1c[nH]cn1)C(=O)N[C@@H](C)C(N)=O [GAL-(1–15), reference compound]","remaining at 4 h, 143 µM",[1],< 4%
same,"metabolised at 0.5 h, 10 µM","[2]; after 30 min, read-out: Peptide degraded in rat serum",80%
same,"remaining at 1.5 h, 10 µM","[2]; after 90 min, read-out: Peptide detectable in rat serum",< 2%
same,Degradation in brain plasma,[3],the whole amount of GAL-(1–15) was degraded
CC(C)C[C@H](NC(=O)CNC(=O)[C@H](CC(N)=O)NC(=O)[C@H](CCCCN)NC(=O)[C@H](CC(=O)O)NC(=O)[C@H](CO)NC(=O)[C@H](Cc1ccccc1)NC(=O)[C@H](CO)NC(=O)[C@H](CCCNC(=N)N)NC(=O)[C@H](Cc1cnc[nH]1)NC(=O)[C@H](CC(N)=O)NC(=O)CNC(=O)[C@@H](NC(=O)[C@H](C)NC(=O)[C@H](Cc1cnc[nH]1)NC(=O)[C@@H]1CCCN1C(=O)CNC(=O)[C@H](CC(C)C)NC(=O)[C@H](CC(C)C)NC(=O)[C@H](Cc1ccc(O)cc1)NC(=O)CNC(=O)[C@H](C)NC(=O)[C@H](CO)NC(=O)[C@H](CC(N)=O)NC(=O)[C@H](CC(C)C)NC(=O)[C@@H](NC(=O)[C@H](Cc1c[nH]c2ccccc12)NC(=O)CN)[C@@H](C)O)C(C)C)C(=O)N[C@H](C(=O)N[C@@H](CO)C(=O)O)[C@@H](C)O [galanin],In vivo half-life in plasma,[4],around 4 min
"galanin-like peptide (APAHRGRGGWTLNSAGYLLGPVLHLPQMGDQDGKRETALEILDLWKAIDGLPYSHPPQPS; Galanin-like peptide; UniProt Q9UBC7 25-84, looked up) [GALP, endogenous ligand of GALRs, positive control, from GL Biochem, reference compound]",Increase of uptake in all brain regions compared to GALP alone,[5],two- to threefold
same,Reduction of 24-h food intake,"[6]; intranasal 17.5 nmol in 50 µl saline with 5% α-cyclodextrin, vs vehicle, p = 0.038",19%
same,24-h body weight change,"[6]; intranasal 17.5 nmol in saline with 5% α-cyclodextrin, p = 0.0247 as printed","trend of reduction, but this change did not reach statistical significance"
